Measurements published in ChEMBL document CHEMBL3132826, “Investigation of a tetrahydroisoquinoline scaffold as dual-action steroid sulfatase inhibitors generated by parallel solid-phase synthesis” (Medchemcomm, 2013).

Key:
[1] = biological target: T1, Steryl-sulfatase (Homo sapiens) (UniProt P08842); experiment: Inhibition of STS (unknown origin) expressed in HEK-293 cells assessed as transformation of [3H]-E1S into E1 at 0.1 uM by […]; format: cell-based; details: HEK293
T1 sequence (whole entry): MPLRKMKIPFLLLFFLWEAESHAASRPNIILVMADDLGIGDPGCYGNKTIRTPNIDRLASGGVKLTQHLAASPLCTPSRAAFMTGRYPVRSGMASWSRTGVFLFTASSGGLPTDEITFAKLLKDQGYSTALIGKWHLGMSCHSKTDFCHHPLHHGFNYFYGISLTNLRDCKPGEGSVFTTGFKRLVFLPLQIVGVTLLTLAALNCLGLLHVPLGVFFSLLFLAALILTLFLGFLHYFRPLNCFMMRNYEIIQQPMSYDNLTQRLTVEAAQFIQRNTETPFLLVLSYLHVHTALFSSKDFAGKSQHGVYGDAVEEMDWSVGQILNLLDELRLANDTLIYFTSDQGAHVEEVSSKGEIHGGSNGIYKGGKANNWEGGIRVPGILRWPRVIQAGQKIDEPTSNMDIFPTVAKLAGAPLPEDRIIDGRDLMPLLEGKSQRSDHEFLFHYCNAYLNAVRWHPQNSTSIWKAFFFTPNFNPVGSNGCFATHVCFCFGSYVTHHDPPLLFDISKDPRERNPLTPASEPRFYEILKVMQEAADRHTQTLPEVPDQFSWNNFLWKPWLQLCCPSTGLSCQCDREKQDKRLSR

[2] = biological target: T1, Steryl-sulfatase (Homo sapiens); experiment: Inhibition of STS (unknown origin) expressed in HEK-293 cells assessed as transformation of [3H]-E1S into E1 at 1 uM by […]; format: cell-based; details: HEK293
MCF7 [3] = experiment: Estrogenic activity in human MCF7 cells assessed as cell proliferation at 0.1 uM by MTS assay relative to basal level; format: ADME, cell-based; details: mcf7, 0.1 µM
MCF7 [4] = experiment: Estrogenic activity in human MCF7 cells assessed as cell proliferation at 1 uM by MTS assay relative to basal level; format: ADME, cell-based; details: mcf7, 1 µM
MCF7 [5] = experiment: Estrogenic activity in human MCF7 cells assessed as cell proliferation at 0.01 uM by MTS assay relative to basal level; format: ADME, cell-based; details: mcf7, 0.01 µM

NS(=O)(=O)Oc1ccc2c(c1)CN(C(=O)c1cccc(N(Cc3ccccc3)Cc3ccco3)c1)CC2
inhibition [1]: 27.5%
inhibition [2]: 90.5%

NS(=O)(=O)Oc1ccc2c(c1)CN(C(=O)c1cccc(N(CCO)Cc3ccccc3)c1)CC2
inhibition [1]: 26.7%
inhibition [2]: 32.4%

NS(=O)(=O)Oc1ccc2c(c1)CN(C(=O)c1cccc(N3CCC(Cc4ccccc4)CC3)c1)CC2
inhibition [1]: 1.4%
inhibition [2]: 41.9%

CN(CCCN1CCCCC1)c1ccc(C(=O)N2CCc3ccc(O)cc3C2)cc1
Activity (MCF7 [3]): 0%
Activity (MCF7 [4]): 0%
Activity (MCF7 [5]): 0%

CCN(Cc1ccc(Br)cc1)c1ccc(C(=O)N2CCc3ccc(OS(N)(=O)=O)cc3C2)cc1
inhibition [1]: 78.2%
inhibition [2]: 95.9%

NS(=O)(=O)Oc1ccc2c(c1)CN(C(=O)c1ccc(N3CCOCC3)cc1)CC2
inhibition [1]: 10.9%
inhibition [2]: 50.6%

NS(=O)(=O)Oc1ccc2c(c1)CN(C(=O)c1ccc(N3CCN(c4ncccn4)CC3)cc1)CC2
inhibition [1]: 14.7%
inhibition [2]: 41.9%

CN(C)CCCN(Cc1ccccc1)c1ccc(C(=O)N2CCc3ccc(O)cc3C2)cc1
Activity (MCF7 [3]): 18.3%
Activity (MCF7 [4]): 25.9%
Activity (MCF7 [5]): 19.4%

NS(=O)(=O)Oc1ccc2c(c1)CN(C(=O)c1cccc(N3CCN(Cc4ccccc4)CC3)c1)CC2
inhibition [1]: 0%
inhibition [2]: 23.7%

CN(CCCN1CCCCC1)c1cccc(C(=O)N2CCc3ccc(OS(N)(=O)=O)cc3C2)c1
inhibition [1]: 24.1%
inhibition [2]: 30.6%

NS(=O)(=O)Oc1ccc2c(c1)CN(C(=O)c1ccc(N3CCN(Cc4ccccc4)CC3)cc1)CC2
inhibition [1]: 20.8%
inhibition [2]: 75.8%

NS(=O)(=O)Oc1ccc2c(c1)CN(C(=O)c1cccc(N3CCc4ccccc4C3)c1)CC2
inhibition [1]: 24.1%
inhibition [2]: 50.2%

NS(=O)(=O)Oc1ccc2c(c1)CN(C(=O)c1ccc(N(CCCO)Cc3ccccc3)cc1)CC2
inhibition [1]: 5.7%
inhibition [2]: 64.3%

CC(C)CCN(CCC(C)C)c1cccc(C(=O)N2CCc3ccc(O)cc3C2)c1
Activity (MCF7 [3]): 0%
Activity (MCF7 [4]): 10.6%
Activity (MCF7 [5]): 0%

NS(=O)(=O)Oc1ccc2c(c1)CN(C(=O)c1ccc(N3CCC(N4CCCCC4)CC3)cc1)CC2
inhibition [1]: 8.5%
inhibition [2]: 53.7%

CN(C)CCN(CCN(C)C)c1cccc(C(=O)N2CCc3ccc(OS(N)(=O)=O)cc3C2)c1
inhibition [1]: 0%
inhibition [2]: 17.1%

CCCN(Cc1ccccc1)c1cccc(C(=O)N2CCc3ccc(O)cc3C2)c1
Activity (MCF7 [3]): 0%
Activity (MCF7 [4]): 20.8%
Activity (MCF7 [5]): 1.6%

CCN(Cc1cccnc1)c1ccc(C(=O)N2CCc3ccc(OS(N)(=O)=O)cc3C2)cc1
inhibition [1]: 35.7%
inhibition [2]: 85.2%

CCN(Cc1cccc(Br)c1)c1ccc(C(=O)N2CCc3ccc(O)cc3C2)cc1
Activity (MCF7 [3]): 0%
Activity (MCF7 [4]): 18.3%
Activity (MCF7 [5]): 1.8%

CN1CCN(c2cccc(C(=O)N3CCc4ccc(OS(N)(=O)=O)cc4C3)c2)CC1
inhibition [1]: 0%
inhibition [2]: 12.6%

CN(C)CCN(CCN(C)C)c1ccc(C(=O)N2CCc3ccc(OS(N)(=O)=O)cc3C2)cc1
inhibition [1]: 3.8%
inhibition [2]: 15.9%

CCN(Cc1cccc(Br)c1)c1cccc(C(=O)N2CCc3ccc(O)cc3C2)c1
Activity (MCF7 [3]): 0%
Activity (MCF7 [4]): 8.5%
Activity (MCF7 [5]): 0%

O=C(c1cccc(N2CCc3ccccc3C2)c1)N1CCc2ccc(O)cc2C1
Activity (MCF7 [3]): 0%
Activity (MCF7 [4]): 14.7%
Activity (MCF7 [5]): 0%

CCN(Cc1ccccn1)c1ccc(C(=O)N2CCc3ccc(OS(N)(=O)=O)cc3C2)cc1
inhibition [1]: 42.5%
inhibition [2]: 87.7%

CN(CCN1CCCCC1)c1cccc(C(=O)N2CCc3ccc(OS(N)(=O)=O)cc3C2)c1
inhibition [1]: 24.5%
inhibition [2]: 30.8%

NS(=O)(=O)Oc1ccc2c(c1)CN(C(=O)c1cccc(N3CCSCC3)c1)CC2
inhibition [1]: 2.3%
inhibition [2]: 39.6%

CCN(Cc1ccccc1)Cc1ccc(S(=O)(=O)N2CCc3ccc(OS(N)(=O)=O)cc3C2)cc1
inhibition [1]: 10%
inhibition [2]: 31%

CCN(Cc1ccc(F)cc1)c1cccc(C(=O)N2CCc3ccc(OS(N)(=O)=O)cc3C2)c1
inhibition [1]: 10.9%
inhibition [2]: 66.5%

CCN(Cc1ccccc1)c1cccc(C(=O)N2CCc3ccc(OS(N)(=O)=O)cc3C2)c1
inhibition [1]: 17.3%
inhibition [2]: 69%

NS(=O)(=O)Oc1ccc2c(c1)CN(C(=O)c1cccc(N(CCCO)Cc3ccccc3)c1)CC2
inhibition [1]: 25.8%
inhibition [2]: 37.3%

CCN(Cc1ccccn1)c1cccc(C(=O)N2CCc3ccc(O)cc3C2)c1
Activity (MCF7 [3]): 58.4%
Activity (MCF7 [4]): 87.3%
Activity (MCF7 [5]): 10.6%

CN(C)CCCN(Cc1ccccc1)c1cccc(C(=O)N2CCc3ccc(OS(N)(=O)=O)cc3C2)c1
inhibition [1]: 23.8%
inhibition [2]: 26%

CN(C)CCN(Cc1ccccc1)c1ccc(C(=O)N2CCc3ccc(O)cc3C2)cc1
Activity (MCF7 [3]): 6.3%
Activity (MCF7 [4]): 4.6%
Activity (MCF7 [5]): 9.6%

CCN(Cc1ccncc1)c1cccc(C(=O)N2CCc3ccc(OS(N)(=O)=O)cc3C2)c1
inhibition [1]: 33.3%
inhibition [2]: 52.8%

NS(=O)(=O)Oc1ccc2c(c1)CN(C(=O)c1cccc(N3CCCCC3)c1)CC2
inhibition [1]: 1%
inhibition [2]: 11.9%

CCCN(CCC)c1cccc(C(=O)N2CCc3ccc(OS(N)(=O)=O)cc3C2)c1
inhibition [1]: 8.3%
inhibition [2]: 54.8%

NS(=O)(=O)Oc1ccc2c(c1)CN(C(=O)c1cccc(N3CCN(c4ncccn4)CC3)c1)CC2
inhibition [1]: 1.6%
inhibition [2]: 24.4%

CCN(Cc1ccccc1)Cc1ccc(CN2CCc3ccc(OS(N)(=O)=O)cc3C2)cc1
inhibition [1]: 1%
inhibition [2]: 17%

NS(=O)(=O)Oc1ccc2c(c1)CN(C(=O)c1cccc(N3CCOCC3)c1)CC2
inhibition [1]: 0%
inhibition [2]: 20.9%

CCN(Cc1ccncc1)c1ccc(C(=O)N2CCc3ccc(OS(N)(=O)=O)cc3C2)cc1
inhibition [1]: 47%
inhibition [2]: 86.6%

CCN(Cc1cccc(Br)c1)c1ccc(C(=O)N2CCc3ccc(OS(N)(=O)=O)cc3C2)cc1
inhibition [1]: 80.2%
inhibition [2]: 97.2%

NS(=O)(=O)Oc1ccc2c(c1)CN(C(=O)c1ccc(N3CCc4ccccc4C3)cc1)CC2
inhibition [1]: 56%
inhibition [2]: 83%

NS(=O)(=O)Oc1ccc2c(c1)CN(C(=O)c1ccc(N(CCO)Cc3ccccc3)cc1)CC2
inhibition [1]: 27.9%
inhibition [2]: 78%

CCCN(Cc1ccccc1)c1cccc(C(=O)N2CCc3ccc(OS(N)(=O)=O)cc3C2)c1
inhibition [1]: 23.1%
inhibition [2]: 67.4%

CN(CCCN1CCCCC1)c1ccc(C(=O)N2CCc3ccc(OS(N)(=O)=O)cc3C2)cc1
inhibition [1]: 17.4%
inhibition [2]: 40.7%

CN(C)CCN(Cc1ccccc1)c1ccc(C(=O)N2CCc3ccc(OS(N)(=O)=O)cc3C2)cc1
inhibition [1]: 13.9%
inhibition [2]: 57.8%

NS(=O)(=O)Oc1ccc2c(c1)CN(C(=O)c1ccc(N3CCSCC3)cc1)CC2
inhibition [1]: 32.3%
inhibition [2]: 80.2%

NS(=O)(=O)Oc1ccc2c(c1)CN(C(=O)c1cccc(N3CCC(N4CCCCC4)CC3)c1)CC2
inhibition [1]: 0%
inhibition [2]: 8%

CCCN(Cc1ccccc1)c1ccc(C(=O)N2CCc3ccc(OS(N)(=O)=O)cc3C2)cc1
inhibition [1]: 64.8%
inhibition [2]: 94.3%

CCN(Cc1cccnc1)c1cccc(C(=O)N2CCc3ccc(OS(N)(=O)=O)cc3C2)c1
inhibition [1]: 14.3%
inhibition [2]: 33.5%

CN(C)CCCN(Cc1ccccc1)c1ccc(C(=O)N2CCc3ccc(OS(N)(=O)=O)cc3C2)cc1
inhibition [1]: 16.2%
inhibition [2]: 61.6%

NS(=O)(=O)Oc1ccc2c(c1)CN(C(=O)c1ccc(N3CCCCC3)cc1)CC2
inhibition [1]: 11.5%
inhibition [2]: 38.3%

CCN(Cc1ccc(Br)cc1)c1cccc(C(=O)N2CCc3ccc(OS(N)(=O)=O)cc3C2)c1
inhibition [1]: 24.2%
inhibition [2]: 84.5%

CN1CCN(c2ccc(C(=O)N3CCc4ccc(OS(N)(=O)=O)cc4C3)cc2)CC1
inhibition [1]: 2.9%
inhibition [2]: 23.3%

CC(C)CCN(CCC(C)C)c1ccc(C(=O)N2CCc3ccc(OS(N)(=O)=O)cc3C2)cc1
inhibition [1]: 47%
inhibition [2]: 90.8%

CN(C)CCN(Cc1ccccc1)c1cccc(C(=O)N2CCc3ccc(OS(N)(=O)=O)cc3C2)c1
inhibition [1]: 0%
inhibition [2]: 28.6%

NS(=O)(=O)Oc1ccc2c(c1)CN(C(=O)c1ccc(N(Cc3ccccc3)Cc3ccco3)cc1)CC2
inhibition [1]: 90.8%
inhibition [2]: 98.2%

CCN(Cc1ccc(F)cc1)c1ccc(C(=O)N2CCc3ccc(OS(N)(=O)=O)cc3C2)cc1
inhibition [1]: 69.1%
inhibition [2]: 91.2%

CCN(Cc1cccc(Br)c1)c1cccc(C(=O)N2CCc3ccc(OS(N)(=O)=O)cc3C2)c1
inhibition [1]: 20.9%
inhibition [2]: 24.9%

CCN(Cc1ccccn1)c1cccc(C(=O)N2CCc3ccc(OS(N)(=O)=O)cc3C2)c1
inhibition [1]: 6.5%
inhibition [2]: 19.9%

CN(CCN1CCCCC1)c1ccc(C(=O)N2CCc3ccc(OS(N)(=O)=O)cc3C2)cc1
inhibition [1]: 0.3%
inhibition [2]: 26.8%

CC(C)CCN(CCC(C)C)c1cccc(C(=O)N2CCc3ccc(OS(N)(=O)=O)cc3C2)c1
inhibition [1]: 32.3%
inhibition [2]: 75.9%
